Molecules are shown by their SMILES.

For experiment [1], the target named is T1, oligomerization-deficient mutant of a LANA C-terminal protein fragment (aa 1008–1146) (Human herpesvirus 8 (Kaposi's sarcoma-associated herpesvirus), UniProt Q76SB0).
T1 sequence (Q76SB0 1008-1146): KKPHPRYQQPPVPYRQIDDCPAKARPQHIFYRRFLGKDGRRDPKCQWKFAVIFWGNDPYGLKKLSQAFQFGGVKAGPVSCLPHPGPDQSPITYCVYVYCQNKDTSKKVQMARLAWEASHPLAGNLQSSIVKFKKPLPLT
The experiment can be described thus: Microscale thermophoresis (MST) binding assay. Conditions: read-out: KD value (MST); LANA aa 1008–1146 mutant; means of at least three replicates. Also noted: species or system Kaposi's sarcoma-associated herpesvirus (KSHV). From the text: (§1) In these assays, an oligomerization-deficient mutant of a LANA C-terminal protein fragment (aa 1008–1146) and an oligonucleotide representing LANA-binding site (LBS) 1 were used, which are convenient to use and handle for the described biophysical methods, while maintaining the essential DNA-binding interface.[25]
Equation y = A2 + (A1-A2)/(1 + (x/x0)^p)
1.3 Microscale Thermophoresis (MST) Assay
Microscale Thermophoresis Assay was done as mentioned in a previous publication. 2

For experiment [2], the target named is LANA–DNA interaction (oligomerization-deficient LANA DBD aa 1008–1146 mutant / LBS1) (Human herpesvirus 8 (Kaposi's sarcoma-associated herpesvirus), UniProt Q76SB0). The experiment in a line: Electrophoretic mobility shift assay (EMSA), LANA DBD mutant with LBS1 oligonucleotide. Conditions: compound at 250 μM; LBS1 oligonucleotide; LANA aa 1008–1146 mutant. The experiment is classed as biochemical, Kaposi's sarcoma-associated herpesvirus (KSHV). The method, then:
as §1
Equation y = A2 + (A1-A2)/(1 + (x/x0)^p) […]
1.4 Electrophoretic Mobility Shift Assay (EMSA)
The EMSA was carried out with slight modific ations as described previously 2 based on the assay in Hellert et al. (2013). 3 His-tagged oligomerization-deficient LANA DBD (aa1008-1146) mutant protein or LANA DBD (aa934-1162) wild type protein (200 nM final) was incubated with a 5´-Dy682-labeled double stranded DNA probe (IBA Lifesciences) (20 nM final) for 30 minutes at RT in the dark. The reaction buffer consisted of 30 mM Tris HCl pH 7.5, 50 mM KCl, 10 mM MgCl2, 1 mM DTT, 1 mM EDTA, 10% glycerol, 0.25% Tween20, 0.5 mg/mL BSA and 0.05 mg/mL poly(dI-dC). […]
dark. 10 µL of the reaction was run on a pre -run native 5% acrylamide gel for 45 minutes at 100V with tris-borate-EDTA buffer. Images of the gels were acquired and analysed with the Odyssey (Licor) using the Image Studio software.
Fig S2: Gels of EMSA experiments at 250 μM for all compounds (A) and dose-dependent curves for compound 20 using LANA DBD mutant (B) and LANA wildtype (C) as well as LBS1. Values are means […]
Gleichung y = A2 + (A1-A2)/(1 + (x/x0)^p) […]
Background: A gel shift assay detects complexes by their altered migration in electrophoresis.

For the molecule `COc1ccccc1COc1cccc(-c2cc(C)c(-n3cc(-c4ccc(C(=O)O)cc4)nn3)cn2)c1` [Compound 31], in experiment [1], the Kd (in general, the concentration at which binding is half-saturated) stood at 30.8 ± 15.9 µM. As to `Cc1cc(-c2cccc(O)c2)ncc1-n1cc(-c2ccc(C(=O)O)cc2)nn1` [Compound 22], in experiment [1], the Kd was 26.4 ± 3.4 µM.

Turning to `COc1cccc(COc2cccc(-c3cc(C)c(-n4cc(-c5ccc(C(=O)O)cc5)nn4)cn3)c2)c1` [Compound 32], in experiment [1], the Kd was determined as 31.3 ± 3 µM. Turning to `Cc1cc(-c2cncnc2)ncc1-n1cc(-c2ccc(C(=O)O)cc2)nn1` [Compound 6], the Kd in experiment [1] amounted to 13.3 ± 2.5 µM. Moreover, the “Inhibition (EMSA, LBS1) @250 μM” value in experiment [2] was determined as 74%. As for `Cc1cc(-c2cccc(OCc3ccccc3)c2)ncc1-n1cc(-c2ccc(C(=O)O)cc2)nn1` [Compound 29], the dissociation constant (Kd) in experiment [1] worked out at 84.8 ± 5.6 µM. `Cc1cc(-c2ccccc2)ncc1-n1cc(-c2ccc(C(=O)O)cc2)nn1` [Compound 13]: the dissociation constant Kd in experiment [1] was determined as 7.6 ± 2 µM. Further, the “Inhibition (EMSA, LBS1) @250 μM” value in experiment [2] is given as “n.i. (n.i. = no inhibition for inhibition <10%)”. Turning to `Cc1cc(-c2cccc(Cl)c2)ncc1-n1cc(-c2ccc(C(=O)O)cc2)nn1` [Compound 15], the Kd in experiment [1] turned out to be 22.1 ± 4.8 µM. The “Inhibition (EMSA, LBS1) @250 μM” value in experiment [2] is reported as “n.i. (n.i. = no inhibition for inhibition <10%)”. In the case of `Cc1cc(-c2cccc(C(=O)O)c2)ncc1-n1cc(-c2ccc(C(=O)O)cc2)nn1` [Compound 26], the Kd in experiment [1] is 12.1 ± 3.7 µM. Besides, the “Inhibition (EMSA, LBS1) @250 μM” value in experiment [2] is “n.i. (n.i. = no inhibition for inhibition <10%)”. `COc1cccc(-c2cc(C)c(-n3cc(-c4ccc(C(=O)O)cc4)nn3)cn2)c1` [Compound 18]: the Kd in experiment [1] came out at 9.6 ± 2.8 µM. Besides, in experiment [2], the “Inhibition (EMSA, LBS1) @250 μM” value is “n.i. (n.i. = no inhibition for inhibition <10%)”. Turning to `Cc1cc(-c2cccc(OCc3ccccc3Cl)c2)ncc1-n1cc(-c2ccc(C(=O)O)cc2)nn1` [Compound 30], in experiment [1], the dissociation constant Kd came out at 159 ± 74 µM. As for `Cc1cc(-c2cccc(Oc3ccccc3)c2)ncc1-n1cc(-c2ccc(C(=O)O)cc2)nn1` [Compound 28], the Kd in experiment [1] turned out to be 71.1 ± 9.3 µM. With `CNC(=O)c1cccc(-c2cc(C)c(-n3cc(-c4ccc(C(=O)O)cc4)nn3)cn2)c1` [Compound 24], the Kd in experiment [1] was determined as 4.3 ± 0.9 µM. Further, in experiment [2], the “Inhibition (EMSA, LBS1) @250 μM” value is reported as 40%.

As for `Cc1cc(-c2ccncc2)ncc1-n1cc(-c2ccc(C(=O)O)cc2)nn1` [Compound 5], the Kd in experiment [1] worked out at 57.5 ± 6.8 µM. For `COc1ccc(COc2ccccc2-c2cc(C)c(-n3cc(-c4ccc(C(=O)O)cc4)nn3)cn2)cc1` [Compound 35], in experiment [1], the Kd was determined as 46.1 ± 5.8 µM. As to `Cc1cc(-c2ccc(O)cc2)ncc1-n1cc(-c2ccc(C(=O)O)cc2)nn1` [Compound 23], in experiment [1], the Kd stood at 30.9 ± 3 µM. `Cc1cc(-c2ccc(Cl)cc2)ncc1-n1cc(-c2ccc(C(=O)O)cc2)nn1` [Compound 16]: the equilibrium dissociation constant (Kd) in experiment [1] came out at 37.7 ± 59.3 µM. `COc1ccc(COc2ccc(-c3cc(C)c(-n4cc(-c5ccc(C(=O)O)cc5)nn4)cn3)cc2)cc1` [Compound 36]: the Kd in experiment [1] is 26 ± 3.8 µM. With `Cc1cc(-c2ccc(O)nc2)ncc1-n1cc(-c2ccc(C(=O)O)cc2)nn1` [Compound 8], in experiment [1], the equilibrium dissociation constant (Kd) was found to be 13.8 ± 2.7 µM. Further, the “Inhibition (EMSA, LBS1) @250 μM” value in experiment [2] turned out to be 42%. As for `Cc1cc(-c2cnc3ccccc3c2)ncc1-n1cc(-c2ccc(C(=O)O)cc2)nn1` [Compound 12], the Kd in experiment [1] turned out to be 31 ± 2.5 µM. Consider `COc1cc(COc2cccc(-c3cc(C)c(-n4cc(-c5ccc(C(=O)O)cc5)nn4)cn3)c2)cc(OC)c1` [Compound 33], for which the dissociation constant (Kd) in experiment [1] worked out at 96.7 ± 9 µM. As for `COc1ccc(-c2cc(C)c(-n3cc(-c4ccc(C(=O)O)cc4)nn3)cn2)cn1` [Compound 10], in experiment [1], the Kd turned out to be 9.2 ± 2.1 µM. The “Inhibition (EMSA, LBS1) @250 μM” value in experiment [2] is on record as “n.i. (n.i. = no inhibition for inhibition <10%)”.

For `COc1ccccc1-c1cc(C)c(-n2cc(-c3ccc(C(=O)O)cc3)nn2)cn1` [Compound 17], the Kd in experiment [1] worked out at 18 ± 2.7 µM. Further, the “Inhibition (EMSA, LBS1) @250 μM” value in experiment [2] was 38%. As to `COc1ccc(COc2cccc(-c3cc(C)c(-n4cc(-c5ccc(C(=O)O)cc5)nn4)cn3)c2)cc1` [Compound 34], the Kd in experiment [1] was 5.3 ± 4 µM. The “Inhibition (EMSA, LBS1) @250 μM” value in experiment [2] is on record as 31%.

`Cc1cc(-c2cncc(O)c2)ncc1-n1cc(-c2ccc(C(=O)O)cc2)nn1` [Compound 7]: in experiment [1], the Kd was 48.3 ± 11.8 µM. With `Cc1cc(-c2cccnc2)ncc1-n1cc(-c2ccc(C(=O)O)cc2)nn1` [Compound 4], the Kd in experiment [1] amounted to 81.3 ± 10.5 µM. As to `CNC(=O)c1ccc(-c2cc(C)c(-n3cc(-c4ccc(C(=O)O)cc4)nn3)cn2)cc1` [Compound 25], the Kd in experiment [1] was determined as 30.9 ± 3.1 µM.

For the origin of these results see publication PMC10424179, “Disrupting Kaposi’s Sarcoma-Associated Herpesvirus (KSHV) Latent Replication with a Small Molecule Inhibitor” (Journal of Medicinal Chemistry, 2023).
